Data on seven compounds can be found in patent EP3679037B1, “NEW 5-AMINOTETRAZOLE DERIVATIVES WITH ANTIBACTERIAL AND ANTIFUNGAL ACTIVITY” (Warszawski Uniwersytet Medyczny, priority 2017, dated 2019).

Converted amounts (≈) assume the structure as drawn. Read-outs that look alike come from different tables or passages of the source.

Experiment [1] relates to non-cancerous, immortalized human keratinocyte (HaCaT) cell line. Nature of the experiment: Cytotoxicity (inhibition of cell proliferation), HaCaT cell line. It is filed as cell-based. Here is the method: (§1) The obtained compounds were tested for potential cytotoxicity. They are not cytotoxic to the non-cancerous, immortalized human keratinocyte (HaCaT) cell line and the lung cancer cell line (A549).

Experiment [2] relates to lung cancer cell line (A549). Nature of the experiment: Cytotoxicity (inhibition of cell proliferation), A549 cell line. The following applies: Homo sapiens. Type of experiment: cell-based. Here is the method:
as §1

Another experiment addresses S. aureus DNA Gyrase (Staphylococcus aureus, UniProt P0A0K8+P20831). The experiment is described as follows: Inhibition of bacterial DNA gyrase. Type of experiment: biochemical. The note with it: dose of inhibitor suppressing 50% activity. The source says:
(§2) The mechanism of action was verified for the obtained compounds by inhibiting bacterial topoisomerases (Topoisomerase IV and Gyrase).

The target of experiment [3] is S. aureus Topoisomerase IV (Staphylococcus aureus, UniProt P0C1S7+P0C1U9). The experiment is described as follows: Inhibition of bacterial topoisomerase IV. Type of experiment: biochemical. The following applies: dose of inhibitor suppressing 50% activity.
Source text: as §2

Setting [4] is: concentration at which cell proliferation is inhibited by 50% in relation to the control, read-out: IC50.

S. aureus Topoisomerase IV, sequence (P0C1S7 whole entry): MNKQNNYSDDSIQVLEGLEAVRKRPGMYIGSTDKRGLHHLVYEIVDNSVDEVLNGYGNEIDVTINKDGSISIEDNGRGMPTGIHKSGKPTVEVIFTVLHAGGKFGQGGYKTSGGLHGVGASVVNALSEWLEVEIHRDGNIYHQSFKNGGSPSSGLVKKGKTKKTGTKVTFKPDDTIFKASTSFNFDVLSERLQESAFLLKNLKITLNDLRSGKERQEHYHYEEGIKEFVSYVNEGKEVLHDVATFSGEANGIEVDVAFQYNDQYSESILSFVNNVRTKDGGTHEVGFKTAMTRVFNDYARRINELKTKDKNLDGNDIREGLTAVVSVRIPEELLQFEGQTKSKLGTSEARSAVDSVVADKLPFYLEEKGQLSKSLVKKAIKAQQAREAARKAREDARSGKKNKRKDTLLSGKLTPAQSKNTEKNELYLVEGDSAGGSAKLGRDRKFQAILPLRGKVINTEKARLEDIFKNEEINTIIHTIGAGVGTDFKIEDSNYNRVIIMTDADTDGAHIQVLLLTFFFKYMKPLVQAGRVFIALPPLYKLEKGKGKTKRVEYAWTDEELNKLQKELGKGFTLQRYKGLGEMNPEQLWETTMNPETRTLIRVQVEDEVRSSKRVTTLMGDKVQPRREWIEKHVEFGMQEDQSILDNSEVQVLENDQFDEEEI
S. aureus Topoisomerase IV, sequence (P0C1U9 whole entry): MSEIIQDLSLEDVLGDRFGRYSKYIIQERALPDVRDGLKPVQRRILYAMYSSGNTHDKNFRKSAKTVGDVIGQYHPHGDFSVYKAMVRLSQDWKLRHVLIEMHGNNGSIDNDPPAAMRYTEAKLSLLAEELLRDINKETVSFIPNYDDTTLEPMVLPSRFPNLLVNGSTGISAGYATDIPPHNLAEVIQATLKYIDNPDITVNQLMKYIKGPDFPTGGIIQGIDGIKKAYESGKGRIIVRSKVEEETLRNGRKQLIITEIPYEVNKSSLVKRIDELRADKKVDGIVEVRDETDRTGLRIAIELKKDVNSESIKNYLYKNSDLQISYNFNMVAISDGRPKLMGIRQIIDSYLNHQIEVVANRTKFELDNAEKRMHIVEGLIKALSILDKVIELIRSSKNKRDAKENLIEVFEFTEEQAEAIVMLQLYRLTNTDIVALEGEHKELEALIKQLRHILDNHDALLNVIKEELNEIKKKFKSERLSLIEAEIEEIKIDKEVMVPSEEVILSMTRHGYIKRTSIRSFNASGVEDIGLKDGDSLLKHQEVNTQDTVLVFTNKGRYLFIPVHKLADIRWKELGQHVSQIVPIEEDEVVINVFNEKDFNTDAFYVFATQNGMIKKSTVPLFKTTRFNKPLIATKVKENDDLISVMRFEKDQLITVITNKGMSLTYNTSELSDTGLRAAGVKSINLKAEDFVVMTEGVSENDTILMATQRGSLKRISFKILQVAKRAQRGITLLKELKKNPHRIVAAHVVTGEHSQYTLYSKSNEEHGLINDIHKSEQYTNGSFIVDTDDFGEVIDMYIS
S. aureus DNA Gyrase, sequence (P20831 whole entry): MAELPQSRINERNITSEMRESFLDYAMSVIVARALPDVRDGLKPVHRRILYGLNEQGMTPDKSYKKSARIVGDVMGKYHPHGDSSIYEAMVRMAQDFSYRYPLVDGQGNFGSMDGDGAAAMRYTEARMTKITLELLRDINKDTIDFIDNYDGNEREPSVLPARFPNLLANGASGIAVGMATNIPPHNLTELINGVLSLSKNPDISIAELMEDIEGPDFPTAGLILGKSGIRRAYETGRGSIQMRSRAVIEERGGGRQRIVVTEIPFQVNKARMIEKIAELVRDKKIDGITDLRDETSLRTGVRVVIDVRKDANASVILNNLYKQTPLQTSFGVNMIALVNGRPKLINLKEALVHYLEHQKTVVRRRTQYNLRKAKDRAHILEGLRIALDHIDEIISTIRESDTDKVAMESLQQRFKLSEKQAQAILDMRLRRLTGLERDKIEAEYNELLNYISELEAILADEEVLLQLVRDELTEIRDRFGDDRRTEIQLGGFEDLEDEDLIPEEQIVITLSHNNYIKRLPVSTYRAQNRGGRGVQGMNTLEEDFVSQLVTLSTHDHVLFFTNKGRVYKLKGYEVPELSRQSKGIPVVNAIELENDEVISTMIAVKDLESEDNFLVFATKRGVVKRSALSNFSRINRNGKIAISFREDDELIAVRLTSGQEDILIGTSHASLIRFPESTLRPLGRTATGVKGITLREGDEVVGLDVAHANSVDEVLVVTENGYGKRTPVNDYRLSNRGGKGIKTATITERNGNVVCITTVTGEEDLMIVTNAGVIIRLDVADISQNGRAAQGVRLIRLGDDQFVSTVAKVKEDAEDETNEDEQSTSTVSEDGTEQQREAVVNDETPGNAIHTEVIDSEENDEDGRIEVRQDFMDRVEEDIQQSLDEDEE
S. aureus DNA Gyrase, sequence (P0A0K8 whole entry): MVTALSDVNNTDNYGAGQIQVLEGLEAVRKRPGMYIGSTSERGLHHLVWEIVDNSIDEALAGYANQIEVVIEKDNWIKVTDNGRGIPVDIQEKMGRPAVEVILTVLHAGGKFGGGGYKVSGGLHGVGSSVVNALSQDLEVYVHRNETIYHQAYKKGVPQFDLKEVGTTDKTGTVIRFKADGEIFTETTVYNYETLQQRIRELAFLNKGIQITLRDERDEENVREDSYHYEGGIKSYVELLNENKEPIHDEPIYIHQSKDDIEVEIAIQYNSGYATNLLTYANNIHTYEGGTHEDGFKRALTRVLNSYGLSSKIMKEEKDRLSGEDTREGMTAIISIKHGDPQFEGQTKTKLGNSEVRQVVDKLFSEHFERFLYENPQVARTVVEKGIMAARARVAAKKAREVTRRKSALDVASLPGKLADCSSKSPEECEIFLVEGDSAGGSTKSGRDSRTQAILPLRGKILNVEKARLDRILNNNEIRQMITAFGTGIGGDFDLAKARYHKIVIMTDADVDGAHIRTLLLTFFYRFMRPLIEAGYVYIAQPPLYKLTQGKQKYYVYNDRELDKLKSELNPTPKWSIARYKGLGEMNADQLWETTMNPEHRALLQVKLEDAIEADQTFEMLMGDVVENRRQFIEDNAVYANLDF

Turning to `Fc1ccc(-n2nnnc2Nc2nccs2)cc1Cl` [Compound 2, N-(1-(3-chloro-4-fluorophenyl)-1H-tetrazol-5-yl)thiazol-2-amine], the IC50 in experiment [1] (setting [4]) and in experiment [2] (setting [4]) was 60 µM throughout.
Take `FC(F)(F)c1ccc(-n2nnnc2Nc2nccs2)cc1` [Compound 3, N-(1-(4-(trifluoromethyl)phenyl)-1H-tetrazol-5-yl)thiazole-2-amine]: the concentration for half-maximal inhibition (IC50) in experiment [1] (setting [4]) was 80 µM; in experiment [2] (setting [4]), 76 µM.
Take `Brc1ccc(-n2nnnc2Nn2cnnc2)cc1` [Compound 5, 1-(4-bromophenyl)-N-(4H-1,2.4-triazol-4-yl)-1H-tetrazole-5-amine]: the IC50 in experiment [1] stood at 65 µM; in experiment [2] it was 62 µM.
The corresponding values for `Fc1ccc(-n2nnnc2Nn2cnnc2)cc1Cl` [Compound 8, 1-(3-chloro-4-fluorophenyl)-N-(4H-1,2.4-triazol-4-yl)-1H-tetrazole-5-amine] are 62 µM and 60 µM.
With `Fc1ccc(-n2nnnc2Nn2cnnc2)cc1` [Compound 9, 1-(4-fluorophenyl)-N-(4H-1,2.4-triazol-4-yl)-1H-tetrazole-5-amine], the IC50 came to 84 µM in experiment [1] and 80 µM in experiment [2].
With `Cc1ccc(-n2nnnc2NCc2ccco2)cc1Cl` [Compound 10, 1-(3-chloro-4-methylphenyl)-N-(furan-2-ylmethyl)-1H-tetrazole-5-amine], the IC50 in experiment [1] (setting [4]) was 80 µM; in experiment [2] (setting [4]), 78 µM; in experiment [3] it was 41.1 µM. At S. aureus DNA Gyrase, the “IC50 S. aureus DNA Gyrase” value is 22.8 ± 0.4 µg/mL (≈ 78.7 µM).
Turning to `Clc1ccc(-n2nnnc2NCc2ccco2)cc1Cl` [Compound 11, 1-(3,4-dichlorophenyl)-N-(furan-2-ylmethyl)-1H-tetrazole-5-amine], the IC50 in experiment [1] (setting [4]) is 84 µM; in experiment [2] (setting [4]), 80 µM; against S. aureus DNA Gyrase it was 2.9 µM; in experiment [3], 8.38 µM.
